Results reported in patent US10239873B2, “7-azaindole or 4,7-diazaindole derivatives as IKKϵ epsilon and TBK1 inhibitor and pharmaceutical composition comprising same” (GREEN CROSS CORPORATION, priority 2015, dated 2019).

Experiments:
TBK1 = target: T1, TBK1 (Homo sapiens, UniProt Q9UHD2); test: ADP-Glo Kinase Assay, inhibition activity on TBK1; assay type: biochemical
T1 construct: purchased Promega (Invitrogen is also named in the same bracket) V4158; PR8031B; V3991 (not assigned to the two kinases)
T1 sequence (Q9UHD2 1-729): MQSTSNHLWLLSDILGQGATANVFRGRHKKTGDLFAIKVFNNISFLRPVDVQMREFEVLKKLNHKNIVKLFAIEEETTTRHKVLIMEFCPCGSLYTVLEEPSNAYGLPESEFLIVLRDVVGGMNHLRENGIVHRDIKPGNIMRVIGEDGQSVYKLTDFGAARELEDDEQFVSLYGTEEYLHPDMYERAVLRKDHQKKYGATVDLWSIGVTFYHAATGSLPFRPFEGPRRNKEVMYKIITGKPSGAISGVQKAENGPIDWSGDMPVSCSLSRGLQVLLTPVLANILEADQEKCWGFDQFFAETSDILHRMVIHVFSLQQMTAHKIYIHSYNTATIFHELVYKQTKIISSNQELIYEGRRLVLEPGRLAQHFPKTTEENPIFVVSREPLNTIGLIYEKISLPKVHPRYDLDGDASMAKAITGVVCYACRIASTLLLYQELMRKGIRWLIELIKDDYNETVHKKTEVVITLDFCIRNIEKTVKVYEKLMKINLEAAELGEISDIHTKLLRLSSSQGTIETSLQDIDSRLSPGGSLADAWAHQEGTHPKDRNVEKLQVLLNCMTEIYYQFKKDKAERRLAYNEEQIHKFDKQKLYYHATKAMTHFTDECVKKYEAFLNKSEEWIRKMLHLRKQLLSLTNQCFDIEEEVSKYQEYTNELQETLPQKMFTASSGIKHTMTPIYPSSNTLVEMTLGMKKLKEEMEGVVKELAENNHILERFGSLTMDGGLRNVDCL
Summary of the method: (§1)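 In 40 mM Tris pH 7.5 with 20 mM MgCl2 and 0.1 mg/mL BSA, each enzyme (IKKε or TBK1 kinase system) was run according to the manufacturer's protocol. ADP formed was detected by ADP-Glo luminescence.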

IKKε = target: T2, IKKε (Homo sapiens, UniProt Q14164); test: ADP-Glo Kinase Assay, inhibition activity on IKKε; assay type: biochemical
T2 construct: purchased Promega and/or Invitrogen V4158; PR8031B; V3991 (not assigned to the two kinases)
T2 sequence (Q14164 1-716): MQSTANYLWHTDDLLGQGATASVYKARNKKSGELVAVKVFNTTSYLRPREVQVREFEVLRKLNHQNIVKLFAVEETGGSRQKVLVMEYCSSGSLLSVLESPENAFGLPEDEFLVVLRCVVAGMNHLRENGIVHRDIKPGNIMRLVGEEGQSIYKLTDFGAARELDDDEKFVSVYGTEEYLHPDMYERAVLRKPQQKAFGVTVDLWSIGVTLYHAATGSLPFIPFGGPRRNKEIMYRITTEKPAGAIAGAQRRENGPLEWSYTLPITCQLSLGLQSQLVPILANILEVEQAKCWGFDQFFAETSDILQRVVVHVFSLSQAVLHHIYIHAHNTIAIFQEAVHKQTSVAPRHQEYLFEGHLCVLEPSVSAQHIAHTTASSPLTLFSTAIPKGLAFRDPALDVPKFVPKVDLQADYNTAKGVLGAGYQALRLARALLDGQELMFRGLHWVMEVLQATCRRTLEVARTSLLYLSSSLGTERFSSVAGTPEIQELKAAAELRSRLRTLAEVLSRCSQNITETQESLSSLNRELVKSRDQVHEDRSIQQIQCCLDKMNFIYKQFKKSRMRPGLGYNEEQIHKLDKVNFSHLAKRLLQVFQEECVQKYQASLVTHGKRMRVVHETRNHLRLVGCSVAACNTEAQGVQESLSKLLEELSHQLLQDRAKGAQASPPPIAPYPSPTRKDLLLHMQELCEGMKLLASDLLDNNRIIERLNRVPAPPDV
Summary of the method: as §1

SMILES | IC50 (TBK1) | IC50 (IKKε)
CC(C)CC(=O)N1CC=C(c2c[nH]c3ncc(-c4ccc(CN5CCOCC5)s4)cc23)CC1 [Example 10, 3-Methyl-1-(4-(5-(5-(morpholinomethyl)thiophen-2-yl)-1H-pyrrolo[2,3-b]pyridin-3-yl)-3,6-dihydropyridin-1(2H)-yl)butan-1-one] | 75 nM | 130 nM
CC1C=C(c2c[nH]c3ncc(-c4ccc(S(C)(=O)=O)cc4)cc23)CCN1C(=O)NC1CCCC1 (stereo not shown) [Example 105, N-cyclopentyl-2-methyl-4-(5-(4-(methylsulfonyl)phenyl)-1H-pyrrolo[2,3-b]pyridin-3-yl)-5,6-dihydropyridine-1(2H)-carboxamide] | 25 nM | 22 nM
CC(C)NC(=O)N1C2C=C(c3c[nH]c4ncc(-c5ccc(CN6CCOCC6)s5)cc34)CC1CC2 (stereo not shown) [Example 117, N-isopropyl-3-(5-(5-(morpholinomethyl)thiophen-2-yl)-1H-pyrrolo[2,3-b]pyridin-3-yl)-8-azabicyclo[3.2.1]oct-3-ene-8-carboxamide] | 2700 nM | 4790 nM
CCCCC(=O)N1CC=C(c2c[nH]c3ncc(-c4ccc(CN5CCOCC5)s4)cc23)CC1 [Example 9, 1-(4-(5-(5-(Morpholinomethyl)thiophen-2-yl)-1H-pyrrolo[2,3-b]pyridin-3-yl)-3,6-dihydropyridin-1(2H)-yl)pentan-1-one] | 330 nM | 510 nM
CC(C)OC(=O)N1CC=C(c2c[nH]c3ncc(-c4ccc(S(C)(=O)=O)cc4)cc23)CC1 [Example 148, Isopropyl 4-(5-(4-(methylsulfonyl)phenyl)-1H-pyrrolo[2,3-b]pyridin-3-yl)-5,6-dihydropyridine-1(2H)-carboxylate] | 54 nM | 250 nM
CCC1CC(c2c[nH]c3ncc(-c4ccc(CN5CCOCC5)s4)cc23)=CCN1C(=O)NC(C)C (stereo not shown) [Example 110, 6-Ethyl-N-isopropyl-4-(5-(5-(morpholinomethyl)thiophen-2-yl)-1H-pyrrolo[2,3-b]pyridin-3-yl)-5,6-dihydropyridine-1(2H)-carboxamide] | 31 nM | 43 nM
COc1cccc(-c2cnc3[nH]cc(C4=CCN(C(=O)NC(C)C)CC4)c3c2)c1 [Example 14, N-isopropyl-4-(5-(3-methoxyphenyl)-1H-pyrrolo[2,3-b]pyridin-3-yl)-3,6-dihydropyridine-1(2H)-carboxamide] | 15 nM | > 10000 nM
COc1ccc(-c2cnc3[nH]cc(C4=CCN(C(=O)NC(C)C)C4)c3c2)cc1OC [Example 237, 3-(5-(3,4-dimethoxyphenyl)-1H-pyrrolo[2,3-b]pyridin-3-yl)-N-isopropyl-2,5-dihydro-1H-pyrrol-1-carboxamide] | > 10000 nM | > 10000 nM
CN1CCN(Cc2ccc(-c3cnc4[nH]cc(C5=CCN(C(=O)NC6CC6)CC5)c4c3)s2)CC1 [Example 47, N-cyclopropyl-4-(5-(5-((4-methylpiperazin-1-yl)methyl)thiophen-2-yl)-1H-pyrrolo[2,3-b]pyridin-3-yl)-5,6-dihydropyridine-1(2H)-carboxamide] | 3.6 nM | 12 nM
CCC1C=C(c2c[nH]c3ncc(-c4ccc(C(=O)N5CCN(C)CC5)cc4)cc23)CCN1C(=O)NC(C)C (stereo not shown) [Example 113, 6-Ethyl-N-isopropyl-4-(5-(4-(4-methylpiperazine-1-carbonyl)phenyl)-1H-pyrrolo[2,3-b]pyridin-3-yl)-3,6-dihydropyridine-1(2H)-carboxamide] | 18 nM | 46 nM

The remaining compounds from weak to strong by IC50 (TBK1), led by results:

IC50 (TBK1) | IC50 (IKKε) | SMILES
1280 nM | 1520 nM | CC1C=C(c2c[nH]c3ncc(-c4ccc(CN5CCOCC5)s4)cc23)CC(C)N1C(=O)NC1CCCC1 (stereo not shown) [Example 116, N-cyclopentyl-2,6-dimethyl-4-(5-(5-(morpholinomethyl)thiophen-2-yl)-1H-pyrrolo[2,3-b]pyridin-3-yl)-3,6-dihydropyridine-1(2H)-carboxamide]
360 nM | 430 nM | CC(C)NC(=O)N1C(C)C=C(c2c[nH]c3ncc(-c4ccc(CN5CCOCC5)s4)cc23)CC1C (stereo not shown) [Example 115, N-isopropyl-2,6-dimethyl-4-(5-(5-(morpholinomethyl)thiophen-2-yl)-1H-pyrrolo[2,3-b]pyridin-3-yl)-3,6-dihydropyridine-1(2H)-carboxamide]
33 nM | 120 nM | NS(=O)(=O)c1cccc(-c2cnc3[nH]cc(C4=CCN(C(=O)OC5CCCC5)CC4)c3c2)c1 [Example 145, Cyclopentyl 4-(5-(3-sulfamoylphenyl)-1H-pyrrolo[2,3-b]pyridin-3-yl)-5,6-dihydropyridine-1(2H)-carboxylate]
28 nM | 80 nM | CC1CN(C(=O)NC2CCCC2)CC=C1c1c[nH]c2ncc(-c3cccc(S(N)(=O)=O)c3)cc12 (stereo not shown) [Example 123, N-cyclopentyl-5-methyl-4-(5-(3-sulfamoylphenyl)-1H-pyrrolo[2,3-b]pyridin-3-yl)-5,6-dihydropyridine-1(2H)-carboxamide]
10 nM | 29 nM | CC1C=C(c2c[nH]c3ncc(-c4ccc(CN5CCOCC5)s4)cc23)CCN1C(=O)NC1CCC1 (stereo not shown) [Example 101, N-cyclobutyl-2-methyl-4-(5-(5-(morpholinomethyl)thiophen-2-yl)-1H-pyrrolo[2,3-b]pyridin-3-yl)-5,6-dihydropyridine-1(2H)-carboxamide]
7 nM | 13 nM | CC(C)NC(=O)N1CC=C(c2c[nH]c3ncc(-c4ccc(C(=O)N5CCN(C)CC5)cc4)cc23)CC1 [Example 32, N-isopropyl-4-(5-(4-(4-methylpiperazine-1-carbonyl)phenyl)-1H-pyrrolo[2,3-b]pyridin-3-yl)-5,6-dihydropyridine-1(2H)-carboxamide]
5.9 nM | 8 nM | CC(C)NC(=O)N1CCC(c2c[nH]c3ncc(-c4ccc(CN5CCOCC5)s4)cc23)=CC1(C)C [Example 114, N-isopropyl-2,2-dimethyl-4-(5-(5-(morpholinomethyl)thiophen-2-yl)-1H-pyrrolo[2,3-b]pyridin-3-yl)-5,6-dihydropyridine-1(2H)-carboxamide]
4 nM | 100 nM | CC1CN(C(=O)NC2CCCC2)CC=C1c1c[nH]c2ncc(-c3ccc(CN4CCOCC4)s3)cc12 (stereo not shown) [Example 127, N-cyclopentyl-5-methyl-4-(5-(5-(morpholinomethyl)thiophen-2-yl)-1H-pyrrolo[2,3-b]pyridin-3-yl)-5,6-dihydropyridine-1(2H)-carboxamide]
3.9 nM | 10 nM | CC1C=C(c2c[nH]c3ncc(-c4ccc(C(=O)N5CCN(C)CC5)cc4)cc23)CCN1C(=O)NC1CC1 (stereo not shown) [Example 94, N-cyclopropyl-2-methyl-4-(5-(4-(4-methylpiperazine-1-carbonyl)phenyl)-1H-pyrrolo[2,3-b]pyridin-3-yl)-5,6-dihydropyridine-1(2H)-carboxamide]
3.3 nM | 23 nM | CN1CCN(Cc2ccc(-c3cnc4[nH]cc(C5=CCN(C(=O)c6cccs6)CC5)c4c3)s2)CC1 [Example 205, (4-(5-(5-((4-methylpiperazin-1-yl)methyl)thiophen-2-yl)-1H-pyrrolo[2,3-b]pyridin-3-yl)-5,6-dihydropyridin-1(2H)-yl)(thiophen-2-yl)methanone]
